From ChEMBL document CHEMBL4028808, “Design and synthesis of selective CDK8/19 dual inhibitors: Discovery of 4,5-dihydrothieno[3',4':3,4]benzo[1,2-d]isothiazole derivatives” (Bioorg Med Chem, 2017)
The source made the active and inactive calls. No cut-off for these calls is given here.

Legend:
[1] = target: T1, Cyclin-dependent kinase 19 (Homo sapiens, UniProt Q9BWU1); experiment: Binding affinity to partial length wild-type human CDK19 (M1 to N360 residues) expressed in bacterial expression system by KINOMEscan assay
T1 sequence (Q9BWU1 whole entry, the tested form may be a part): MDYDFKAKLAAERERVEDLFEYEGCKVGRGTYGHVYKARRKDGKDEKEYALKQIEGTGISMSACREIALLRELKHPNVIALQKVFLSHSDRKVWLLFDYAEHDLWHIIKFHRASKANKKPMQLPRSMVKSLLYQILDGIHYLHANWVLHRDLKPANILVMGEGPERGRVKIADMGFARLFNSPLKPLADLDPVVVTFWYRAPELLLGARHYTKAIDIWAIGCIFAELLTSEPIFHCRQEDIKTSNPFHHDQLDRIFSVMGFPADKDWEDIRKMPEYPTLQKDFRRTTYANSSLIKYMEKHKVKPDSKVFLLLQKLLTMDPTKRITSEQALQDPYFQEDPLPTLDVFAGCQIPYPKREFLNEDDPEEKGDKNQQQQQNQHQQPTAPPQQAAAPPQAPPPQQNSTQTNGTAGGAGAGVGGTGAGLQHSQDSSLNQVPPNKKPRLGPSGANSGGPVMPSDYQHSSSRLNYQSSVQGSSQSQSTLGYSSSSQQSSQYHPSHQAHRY

[2] = target: Mitogen-activated protein kinase kinase kinase 19 (Homo sapiens, UniProt Q56UN5); experiment: Binding affinity to partial length wild-type human YSK4 (T1019 to H1328 residues) expressed in bacterial expression system by kinome scan assay
[3] = target: Homeodomain-interacting protein kinase 1 (Homo sapiens, UniProt Q86Z02); experiment: Binding affinity to partial length human HIPK1 (M146 to I555 residues) expressed in mammalian expression system by kinome scan assay
[4] = Mean residence time in ICR mouse plasma at 0.1 mg/kg, iv administered as cassette dose by LC-MS/MS analysis; format: ADME, organism-based
[5] = Mean residence time in ICR mouse plasma at 1 mg/kg, po administered as cassette dose by LC-MS/MS analysis; format: ADME, organism-based
[6] = AUC (0 to 24 hrs) in ICR mouse plasma at 1 mg/kg, po administered as cassette dose by LC-MS/MS analysis; format: ADME, organism-based; set-up: dose 1 mg/kg, time < 24 hr, route oral
Mus musculus [7] = experiment: Toxicity in C.B17/Icr scid/scid Jcl mouse assessed as body weight loss at 1.25 mg/kg, po bid administered for 14 days measured post last dose; format: organism-based; settings: in vivo, 336 h
Mus musculus [8] = experiment: In vivo inhibition of CDK8-mediated STAT1 phosphorylation in human RPMI8226 cells xenografted in C.B17/Icr scid/scid Jcl mouse at 2.5 mg/kg, po bid administered for 14 days measured 2 to 8 hrs post last dose; format: functional, organism-based
[9] = target: Cyclin-dependent kinase 9 (Homo sapiens, UniProt P50750); experiment: Inhibition of CDK9 (unknown origin) at 1 uM relative to control
Cyclin-dependent kinase 9, sequence (P50750 whole entry): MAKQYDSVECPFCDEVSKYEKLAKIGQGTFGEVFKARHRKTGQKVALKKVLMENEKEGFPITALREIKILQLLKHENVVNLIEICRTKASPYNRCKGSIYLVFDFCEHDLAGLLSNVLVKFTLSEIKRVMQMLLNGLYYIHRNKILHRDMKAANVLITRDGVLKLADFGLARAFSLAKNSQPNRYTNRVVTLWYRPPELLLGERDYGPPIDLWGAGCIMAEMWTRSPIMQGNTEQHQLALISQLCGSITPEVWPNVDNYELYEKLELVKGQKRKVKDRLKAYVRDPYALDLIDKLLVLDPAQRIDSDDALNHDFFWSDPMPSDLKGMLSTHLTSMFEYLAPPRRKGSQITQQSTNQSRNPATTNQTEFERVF

[10] = target: Glycogen synthase kinase-3 beta (Homo sapiens) (UniProt P49841); experiment: Inhibition of GSK3beta (unknown origin) at 1 uM using GSK3 substrate peptide preincubated for 5 mins followed by substrate addition measured after 30 mins in presence of [gamma33P]ATP by scintillation counter method relative to control
[11] = target: Casein kinase I isoform delta (Homo sapiens) (UniProt P48730); experiment: Inhibition of CK1delta (unknown origin) at 1 uM using CK1tide as substrate preincubated for 5 mins followed by substrate addition measured after 20 mins in presence of [gamma33P]ATP by scintillation counter method relative to control
[12] = target: Protein kinase C theta type (Homo sapiens) (UniProt Q04759); experiment: Inhibition of PKCtheta (unknown origin) at 1 uM using MBP as substrate preincubated for 5 mins followed by substrate addition measured after 60 mins in presence of [gamma33P]ATP by scintillation counter method relative to control
Protein kinase C theta type (Homo sapiens), sequence (Q04759 whole entry, looked up): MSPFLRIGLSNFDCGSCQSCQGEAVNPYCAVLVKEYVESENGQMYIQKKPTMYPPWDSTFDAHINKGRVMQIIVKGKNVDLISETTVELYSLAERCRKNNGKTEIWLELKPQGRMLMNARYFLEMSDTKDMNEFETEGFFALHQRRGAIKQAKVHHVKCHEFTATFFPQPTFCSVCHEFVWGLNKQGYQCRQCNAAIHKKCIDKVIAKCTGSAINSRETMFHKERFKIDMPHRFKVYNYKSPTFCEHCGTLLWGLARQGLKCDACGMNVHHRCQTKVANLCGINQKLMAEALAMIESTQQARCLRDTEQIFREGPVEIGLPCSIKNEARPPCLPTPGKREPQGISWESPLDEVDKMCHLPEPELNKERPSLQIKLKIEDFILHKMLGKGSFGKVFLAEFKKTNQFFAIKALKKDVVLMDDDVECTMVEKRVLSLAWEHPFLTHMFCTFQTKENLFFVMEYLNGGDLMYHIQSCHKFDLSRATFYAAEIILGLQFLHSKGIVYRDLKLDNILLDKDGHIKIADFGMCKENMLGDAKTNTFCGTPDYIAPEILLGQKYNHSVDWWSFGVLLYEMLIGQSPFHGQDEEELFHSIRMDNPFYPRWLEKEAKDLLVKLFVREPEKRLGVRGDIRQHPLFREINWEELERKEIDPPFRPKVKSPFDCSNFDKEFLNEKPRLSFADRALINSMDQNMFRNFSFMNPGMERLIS

[13] = target: CDC7/DBF4 (Cell division cycle 7-related protein kinase/Activator of S phase kinase) (Homo sapiens) (UniProt Q9UBU7+O00311); experiment: Inhibition of CDC7/Dbf4 (unknown origin) at 1 uM using His-tagged MCM2 as substrate preincubated for 5 mins followed by substrate addition measured after 60 mins in presence of [gamma33P]ATP by scintillation counter method relative to control; format: protein-complex assay
[14] = target: RAC-alpha serine/threonine-protein kinase (Homo sapiens) (UniProt P31749); experiment: Inhibition of Akt1 (unknown origin) at <1 uM using AKT1 substrate pretreated for 5 mins followed by substrate addition after 20 mins in presence of [gamma33P]ATP by scintillation counter method
[15] = target: MAP kinase-activated protein kinase 2 (Homo sapiens) (UniProt P49137); experiment: Inhibition of MAPKAPK2 (unknown origin) at <1 uM using KKLNRTLSVA-NH2 as substrate preincubated for 5 mins followed by substrate addition measured after 10 mins in presence of [gamma33P]ATP by scintillation counter method
MAP kinase-activated protein kinase 2 (Homo sapiens), sequence (P49137 whole entry, looked up): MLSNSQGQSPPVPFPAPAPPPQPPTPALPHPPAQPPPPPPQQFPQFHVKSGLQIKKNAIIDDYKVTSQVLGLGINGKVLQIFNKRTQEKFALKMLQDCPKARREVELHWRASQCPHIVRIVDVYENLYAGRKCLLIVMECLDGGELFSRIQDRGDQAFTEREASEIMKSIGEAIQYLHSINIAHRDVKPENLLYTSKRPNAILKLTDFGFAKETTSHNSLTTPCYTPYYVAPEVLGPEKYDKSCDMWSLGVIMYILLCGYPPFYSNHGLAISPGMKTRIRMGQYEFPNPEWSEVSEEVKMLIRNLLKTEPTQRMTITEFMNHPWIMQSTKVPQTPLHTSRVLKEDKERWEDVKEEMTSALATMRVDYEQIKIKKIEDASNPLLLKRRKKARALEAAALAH

[16] = target: Serine/threonine-protein kinase Chk1 (Homo sapiens) (UniProt O14757); experiment: Inhibition of CHK1 (unknown origin) at <1 uM using CHKtide as substrate preincubated for 5 mins followed by substrate addition measured after 10 mins in presence of [gamma33P]ATP by scintillation counter method
[17] = target: Ephrin type-A receptor 5 (Homo sapiens) (UniProt P54756); experiment: Inhibition of EphA5 (unknown origin) at <1 uM using biotinylated poly[Glu:Tyr] (4:1) as substrate pretreated for 5 mins followed by substrate addition measured after 10 mins by Alphascreen assay
Ephrin type-A receptor 5 (Homo sapiens), sequence (P54756 whole entry): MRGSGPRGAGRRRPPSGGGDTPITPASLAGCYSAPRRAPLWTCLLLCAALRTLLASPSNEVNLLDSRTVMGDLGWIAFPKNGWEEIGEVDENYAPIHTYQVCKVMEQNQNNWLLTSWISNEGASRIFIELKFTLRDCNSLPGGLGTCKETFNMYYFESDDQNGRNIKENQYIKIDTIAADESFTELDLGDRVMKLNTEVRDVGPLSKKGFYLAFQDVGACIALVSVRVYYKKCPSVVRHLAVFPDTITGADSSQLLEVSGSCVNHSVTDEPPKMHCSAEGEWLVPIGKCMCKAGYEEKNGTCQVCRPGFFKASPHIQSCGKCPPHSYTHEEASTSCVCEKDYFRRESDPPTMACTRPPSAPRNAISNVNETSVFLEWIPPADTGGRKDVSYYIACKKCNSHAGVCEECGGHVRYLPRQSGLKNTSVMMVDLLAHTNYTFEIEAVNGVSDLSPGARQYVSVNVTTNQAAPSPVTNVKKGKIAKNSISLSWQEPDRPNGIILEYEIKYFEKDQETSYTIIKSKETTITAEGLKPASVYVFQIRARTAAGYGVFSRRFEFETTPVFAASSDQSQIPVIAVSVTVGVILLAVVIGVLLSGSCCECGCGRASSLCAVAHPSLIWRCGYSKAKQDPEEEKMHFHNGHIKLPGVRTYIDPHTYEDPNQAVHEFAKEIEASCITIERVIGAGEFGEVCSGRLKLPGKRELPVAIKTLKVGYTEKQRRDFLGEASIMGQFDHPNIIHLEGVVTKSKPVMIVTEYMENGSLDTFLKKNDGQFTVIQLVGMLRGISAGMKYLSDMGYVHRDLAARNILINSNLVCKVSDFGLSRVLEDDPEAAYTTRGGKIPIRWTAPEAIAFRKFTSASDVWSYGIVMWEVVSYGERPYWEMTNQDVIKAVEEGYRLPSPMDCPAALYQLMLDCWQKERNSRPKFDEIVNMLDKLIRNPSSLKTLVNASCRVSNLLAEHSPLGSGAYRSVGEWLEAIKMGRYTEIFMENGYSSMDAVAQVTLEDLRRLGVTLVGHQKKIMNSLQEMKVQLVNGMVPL

[18] = target: Hepatocyte growth factor receptor (Homo sapiens) (UniProt P08581); experiment: Inhibition of cMET (unknown origin) at <1 uM
[19] = target: Focal adhesion kinase 1 (Homo sapiens) (UniProt Q05397); experiment: Inhibition of FAK (unknown origin) at <1 uM using biotinylated poly[Glu:Tyr] (4:1) as substrate pretreated for 5 mins followed by substrate addition measured after 20 mins by Alphascreen assay
Focal adhesion kinase 1 (Homo sapiens), sequence (Q05397 2-1052 limits assumed): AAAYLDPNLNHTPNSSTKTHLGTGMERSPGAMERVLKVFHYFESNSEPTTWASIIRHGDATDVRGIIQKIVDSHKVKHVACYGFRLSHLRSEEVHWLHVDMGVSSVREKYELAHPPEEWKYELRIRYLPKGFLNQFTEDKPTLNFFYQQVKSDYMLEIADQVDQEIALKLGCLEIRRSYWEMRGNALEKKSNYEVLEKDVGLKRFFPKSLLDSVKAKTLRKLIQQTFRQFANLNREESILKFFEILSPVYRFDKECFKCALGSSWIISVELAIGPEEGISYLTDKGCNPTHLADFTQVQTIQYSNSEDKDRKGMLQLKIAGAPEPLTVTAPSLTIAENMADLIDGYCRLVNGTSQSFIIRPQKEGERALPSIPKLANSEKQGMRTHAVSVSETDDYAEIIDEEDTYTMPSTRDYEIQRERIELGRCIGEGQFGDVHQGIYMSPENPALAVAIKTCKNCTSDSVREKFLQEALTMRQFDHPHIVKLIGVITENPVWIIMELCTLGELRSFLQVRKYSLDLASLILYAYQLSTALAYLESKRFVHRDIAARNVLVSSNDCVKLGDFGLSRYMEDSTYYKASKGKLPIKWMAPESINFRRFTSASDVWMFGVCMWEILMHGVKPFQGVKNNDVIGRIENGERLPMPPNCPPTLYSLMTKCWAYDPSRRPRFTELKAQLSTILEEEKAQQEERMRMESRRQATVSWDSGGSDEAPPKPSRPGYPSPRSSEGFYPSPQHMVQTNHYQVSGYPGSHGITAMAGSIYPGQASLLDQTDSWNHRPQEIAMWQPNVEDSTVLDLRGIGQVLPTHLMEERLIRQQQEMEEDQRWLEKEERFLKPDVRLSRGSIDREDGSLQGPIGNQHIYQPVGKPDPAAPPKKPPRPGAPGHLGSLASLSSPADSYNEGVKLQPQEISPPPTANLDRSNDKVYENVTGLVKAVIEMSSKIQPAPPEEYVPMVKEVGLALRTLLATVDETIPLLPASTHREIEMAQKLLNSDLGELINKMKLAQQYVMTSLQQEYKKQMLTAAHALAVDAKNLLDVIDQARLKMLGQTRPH

[20] = target: Phosphatidylinositol 4,5-bisphosphate 3-kinase catalytic subunit alpha isoform (Homo sapiens) (UniProt P42336); experiment: Inhibition of PI3Kalpha (unknown origin) at <1 uM
[21] = target: Mitogen-activated protein kinase 3 (Homo sapiens) (UniProt P27361); experiment: Inhibition of ERK1 (unknown origin) at <1 uM using MBP as substrate preincubated for 5 mins followed by substrate addition measured after 60 mins in presence of [gamma33P]ATP by scintillation counter method
[22] = target: Mitogen-activated protein kinase kinase kinase 19 (Homo sapiens) (UniProt Q56UN5); experiment: Binding affinity to partial length wild-type human YSK4 (T1019 to H1328 residues) expressed in bacterial expression system assessed as unbound drug level at 300 nM by KINOMEscan assay
[23] = target: Ephrin type-A receptor 3 (Homo sapiens) (UniProt P29320); experiment: Binding affinity to partial length wild-type human EPHA3 (D604 to K889 residues) expressed in bacterial expression system assessed as unbound drug level at 300 nM by KINOMEscan assay
[24] = target: Interleukin-1 receptor-associated kinase 1 (Homo sapiens) (UniProt P51617); experiment: Binding affinity to partial length wild-type human […] (R194 to S712 residues) expressed in mammalian expression system assessed as unbound drug level at 300 nM by KINOMEscan assay
Interleukin-1 receptor-associated kinase 1 (Homo sapiens), sequence (P51617 whole entry, looked up, the tested form may be a part): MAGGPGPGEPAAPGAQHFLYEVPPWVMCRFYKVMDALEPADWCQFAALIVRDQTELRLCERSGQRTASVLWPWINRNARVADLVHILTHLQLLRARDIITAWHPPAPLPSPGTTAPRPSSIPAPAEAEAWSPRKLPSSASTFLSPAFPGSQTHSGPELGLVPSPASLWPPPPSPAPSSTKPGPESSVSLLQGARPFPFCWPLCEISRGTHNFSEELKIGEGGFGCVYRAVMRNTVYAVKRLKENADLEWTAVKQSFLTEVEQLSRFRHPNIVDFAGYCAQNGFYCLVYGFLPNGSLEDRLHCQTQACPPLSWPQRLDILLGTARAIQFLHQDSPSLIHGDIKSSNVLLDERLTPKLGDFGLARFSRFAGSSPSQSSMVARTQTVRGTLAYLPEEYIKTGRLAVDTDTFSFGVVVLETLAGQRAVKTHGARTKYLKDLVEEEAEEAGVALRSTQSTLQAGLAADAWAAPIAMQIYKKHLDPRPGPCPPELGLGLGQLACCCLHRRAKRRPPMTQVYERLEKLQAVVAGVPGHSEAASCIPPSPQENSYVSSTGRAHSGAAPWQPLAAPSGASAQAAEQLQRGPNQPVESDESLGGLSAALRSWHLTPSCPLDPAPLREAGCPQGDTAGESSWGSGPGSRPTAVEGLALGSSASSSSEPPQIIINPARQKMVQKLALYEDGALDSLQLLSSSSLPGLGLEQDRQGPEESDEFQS

[25] = target: Dual specificity tyrosine-phosphorylation-regulated kinase 1A (Homo sapiens) (UniProt Q13627); experiment: Binding affinity to partial length wild-type human DYRK1A (H129 to S509 residues) expressed in mammalian expression system assessed as unbound drug level at 300 nM by KINOMEscan assay
MV4-11 = experiment: Growth inhibition of human MV411 cells after 196 hrs by CellTiter-Glo luminescence assay; format: functional; settings: MV4-11, 196 h
Calu-1 = experiment: Growth inhibition of human Calu1 cells after 196 hrs by CellTiter-Glo luminescence assay; format: functional; settings: Calu-1, 196 h
[26] = target: T1, Cyclin-dependent kinase 19; settings: 300 nM
[27] = target: Cyclin-dependent kinase 8 (Homo sapiens, UniProt P49336); experiment: Inhibition of CDK8 in human SW480 cells assessed as decrease in STAT1 phosphorylation at Ser727 after 2 hrs by Western blot method

`COCCNC(=O)c1ccc(Oc2sc(C(N)=O)c3c2-c2sncc2CC3)cn1` gave a Kd [1] of 25 nM, a Kd [2] of 97 nM and a Kd [3] of 160 nM. For the same molecule, the MRT [4] was 1.93 h, the MRT [5] was 2.06 h and the AUC(0-t) at 24 h [6] was 891 ng·h/mL. The Activity (Mus musculus [7]) was 0.9%, the inhibition (Mus musculus [8]) was “Active” and the inhibition [9] was 83%. For the same molecule, the inhibition [10] was 31%, the inhibition [11] was 28% and the inhibition [12] was 2%. The inhibition [13] was 33%, the inhibition [14] was “inactive” and the inhibition [15] was “inactive”. The inhibition [16] was “inactive”, the inhibition [17] was “inactive” and the inhibition [18] was “inactive”. For the same molecule, the inhibition [19] was “inactive”, the inhibition [20] was “inactive” and the inhibition [21] was “inactive”. The Fu [22] was 0.41%, the Fu [23] was 0.43% and the Fu [24] was 0.49%. The Fu [25] was 0.47%, the GI50 (MV4-11) was 1.6 nM and the GI50 (Calu-1) was 0.43 nM. For the same molecule, the Fu [26] was 0.046% and the EC50 [27] was 1.3 nM.
